The values below come from BindingDB's records for doi:10.1021/acsmedchemlett.3c00104 (Novartis Institutes for Biomedical Research, 2023).

In assay [1] the target is T1, DDB1- and CUL4-associated factor 1 (Homo sapiens, UniProt Q9Y4B6). As to the kind of experiment: Binding affinity to Avi-tagged DCAF1 (1073 to 1399 residues) (unknown origin) expressed in baculovirus infected in Sf9 insect cells by SPR analysis.
Assay [2] deals with T1, DDB1- and CUL4-associated factor 1. As to the kind of experiment: Binding affinity to Avi-tagged DCAF1 (1039 to 1401 residues) (unknown origin) expressed in baculovirus infected in Sf9 insect cells by NMR analysis.

T1 sequence (Q9Y4B6 whole entry, the tested form may be a part): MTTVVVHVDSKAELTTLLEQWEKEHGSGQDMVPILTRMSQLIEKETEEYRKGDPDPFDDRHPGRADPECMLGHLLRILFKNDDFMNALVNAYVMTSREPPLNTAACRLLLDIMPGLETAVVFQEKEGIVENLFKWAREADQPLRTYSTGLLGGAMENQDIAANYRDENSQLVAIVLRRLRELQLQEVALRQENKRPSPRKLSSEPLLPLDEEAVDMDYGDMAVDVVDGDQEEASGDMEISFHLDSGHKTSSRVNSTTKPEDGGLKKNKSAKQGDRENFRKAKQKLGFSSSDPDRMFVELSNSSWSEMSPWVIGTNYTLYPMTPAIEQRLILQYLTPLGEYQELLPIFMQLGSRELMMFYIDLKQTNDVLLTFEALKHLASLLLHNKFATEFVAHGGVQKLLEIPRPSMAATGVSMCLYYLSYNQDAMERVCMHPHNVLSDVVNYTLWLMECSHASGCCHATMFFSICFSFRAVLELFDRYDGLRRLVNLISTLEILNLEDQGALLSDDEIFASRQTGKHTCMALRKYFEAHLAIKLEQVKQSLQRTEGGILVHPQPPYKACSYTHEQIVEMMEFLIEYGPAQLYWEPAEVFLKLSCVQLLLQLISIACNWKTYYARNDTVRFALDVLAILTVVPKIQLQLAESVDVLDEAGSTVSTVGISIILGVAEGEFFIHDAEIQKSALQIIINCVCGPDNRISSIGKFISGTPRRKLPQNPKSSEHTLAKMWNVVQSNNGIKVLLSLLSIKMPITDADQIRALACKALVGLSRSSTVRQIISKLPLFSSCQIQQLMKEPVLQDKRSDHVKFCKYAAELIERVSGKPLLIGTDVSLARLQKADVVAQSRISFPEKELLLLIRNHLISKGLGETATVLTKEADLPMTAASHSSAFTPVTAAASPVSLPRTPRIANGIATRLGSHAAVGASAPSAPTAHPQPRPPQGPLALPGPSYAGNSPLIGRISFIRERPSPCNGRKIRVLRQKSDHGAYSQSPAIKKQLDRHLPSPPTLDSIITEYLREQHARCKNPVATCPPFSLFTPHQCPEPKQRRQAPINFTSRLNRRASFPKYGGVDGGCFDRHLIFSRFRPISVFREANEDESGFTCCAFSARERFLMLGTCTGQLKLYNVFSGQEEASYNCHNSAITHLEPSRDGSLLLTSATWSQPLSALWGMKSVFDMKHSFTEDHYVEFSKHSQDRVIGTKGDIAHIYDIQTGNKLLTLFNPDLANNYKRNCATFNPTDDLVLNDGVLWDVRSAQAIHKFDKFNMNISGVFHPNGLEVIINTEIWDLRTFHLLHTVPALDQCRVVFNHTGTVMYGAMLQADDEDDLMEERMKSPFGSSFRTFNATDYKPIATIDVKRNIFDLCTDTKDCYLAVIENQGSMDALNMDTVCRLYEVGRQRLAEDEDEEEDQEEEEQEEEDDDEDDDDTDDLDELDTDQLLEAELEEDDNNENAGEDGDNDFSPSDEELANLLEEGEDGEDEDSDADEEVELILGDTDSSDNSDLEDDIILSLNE

A word on the Kd: it is the equilibrium constant for the complex coming apart. The low end stands for a tighter complex, the high end for a looser complex. As for `NC1=NCC(c2cccc(Oc3ccc(Cl)cc3)c2)C1` (stereo not drawn), the Kd was above 100 µM in assay [1] and above 500 µM in assay [2].
Take `Clc1ccc(C2(C3=Cc4ccccc4C4=NCCN34)CC2)cc1`: the dissociation constant (Kd) amounted to 41 µM in assay [1] and 13 µM in assay [2].
In turn, `COc1ccc(C2(C3=Cc4ccccc4C4=NCCN34)CC2)cc1` registered a Kd in assay [1] above 50 µM.
Regarding `COc1ccc(C2(C3=Cc4cc(N5CCN(C)CC5)ccc4C4=NCCN34)CC2)cc1`, binding in assay [1] was put at a Kd of 11.4 µM.
The same measure, in the same setting: to `COc1ccc(C2(c3nc(NCCN)c4ccccc4n3)CC2)cc1` belongs 26.7 µM.
Same read-out and setting: the same measure for `COc1ccc(C2(c3nc(NCCN)c4ccc(N5CCN(C)CC5)cc4n3)CC2)cc1`: 5.6 µM; for `COc1ccc(C2(c3nc(NCCN)c4ccc(N5CCN(C(C)=O)CC5)cc4n3)CC2)cc1`: 1.5 µM.
On the same count and under the same terms, to `CN1CCN(c2ccc3c(NCCN)nc(C4(c5ccc(Cl)cc5)CCCC4)nc3c2)CC1` belongs 0.098 µM.
The compound `CC(=O)N1CCN(c2ccc3c(NCCN)nc(C4(c5ccc(Cl)cc5)CCCC4)nc3c2)CC1` registered a Kd in assay [1] of 0.047 µM.
The same measure, in the same setting: the same measure for `CN1CCN(c2ccc3c(NCCN)nc(C4(c5ccc(Cl)cc5)CCCCC4)nc3c2)CC1`: 0.083 µM.
Regarding `CC(C)(Cc1ccccc1)C1=Cc2ccccc2C2=NCCN12`, the Kd in assay [2] came out at 40 µM.
